Measurements reported in PubChem BioAssay AID1919003 (Molecular Pharmacology Branch, DTP, NCI, 2023).

Tested on: 786-0 complex spheroids with HUVEC/MSC, growth % test/control
Assay: Anticancer human tumor 786-0 cell line growth inhibition [AhR];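 note: compound exposure lasted seven days before the read-out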
Details: for IC50: curve of first compound; for viability, T/C: stronger effect = lower value
Method in brief: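 Complex tumor spheroids co-cultured with HUVEC and human MSC stroma; AhR antagonists tested in combination with standard-of-care and investigational agents. Top concentration at or near clinical Cmax (else 10 microM), half-log dilutions; growth expressed as percent test/control.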

[1] = second compound 0.1 µM, first compound 0.0316 µM
[2] = second compound 0.1 µM, first compound 0.1 µM
[3] = second compound 0.316 µM, first compound 0.0316 µM
[4] = second compound 0.316 µM, first compound 0.1 µM
[5] = second compound 1 µM, first compound 0.0316 µM
[6] = second compound 1 µM, first compound 0.1 µM
[7] = second compound 3.16 µM, first compound 0.0316 µM
[8] = second compound 3.16 µM, first compound 0.1 µM
[9] = second compound 10 µM, first compound 0.0316 µM
[10] = second compound 10 µM, first compound 0.1 µM
[11] = second compound 0.1 µM, first compound 0.316 µM
[12] = second compound 0.1 µM, first compound 1 µM
[13] = second compound 0.1 µM, first compound 3.16 µM
[14] = second compound 0.1 µM, first compound 10 µM
[15] = second compound 0.316 µM, first compound 0.316 µM
[16] = second compound 0.316 µM, first compound 1 µM
[17] = second compound 0.316 µM, first compound 3.16 µM
[18] = second compound 0.316 µM, first compound 10 µM
[19] = second compound 1 µM, first compound 0.316 µM
[20] = second compound 1 µM, first compound 1 µM
[21] = second compound 1 µM, first compound 3.16 µM
[22] = second compound 1 µM, first compound 10 µM
[23] = second compound 3.16 µM, first compound 0.316 µM
[24] = second compound 3.16 µM, first compound 1 µM
[25] = second compound 3.16 µM, first compound 3.16 µM
[26] = second compound 3.16 µM, first compound 10 µM
[27] = second compound 10 µM, first compound 0.316 µM
[28] = second compound 10 µM, first compound 1 µM
[29] = second compound 10 µM, first compound 3.16 µM
[30] = second compound 10 µM, first compound 10 µM

Row | SMILES | IC50 (second compound 0.1 µM) [nM] | IC50 (second compound 0.316 µM) [nM] | IC50 (second compound 1 µM) [nM] | IC50 (second compound 3.16 µM) [nM] | IC50 (second compound 10 µM) [nM] | viability, T/C [1] [%] | viability, T/C [2] [%] | viability, T/C [3] [%] | viability, T/C [4] [%] | viability, T/C [5] [%] | viability, T/C [6] [%] | viability, T/C [7] [%] | viability, T/C [8] [%] | viability, T/C [9] [%] | viability, T/C [10] [%] | viability, T/C [11] [%] | viability, T/C [12] [%] | viability, T/C [13] [%] | viability, T/C [14] [%] | viability, T/C [15] [%] | further results
1 | CC[C@@]1(O)C(=O)OCc2c1cc1n(c2=O)Cc2cc3c(CN(C)C)c(O)ccc3nc2-1 + Cc1ccccc1N=Nc1ccc(NC(=O)c2ccnn2C)c(C)c1 | 48.5 | 41 | 38.8 | 30.9 | 27 | 68.1 | 19.6 | 59.8 | 16.6 | 57.3 | 15.9 | 49.1 | 18.7 | 44.6 | 16.7 | – | – | – | – | – | viability, T/C (second compound 0.1 µM, first compound 0.000316 µM): 107%; viability, T/C (second compound 0.1 µM, first compound 0.001 µM): 103%; viability, T/C (second compound 0.1 µM, first compound 0.00316 µM): 104%; viability, T/C (second compound 0.1 µM, first compound 0.01 µM): 109%; viability, T/C (second compound 0.316 µM, first compound 0.000316 µM): 101%; viability, T/C (second compound 0.316 µM, first compound 0.001 µM): 99.4%; viability, T/C (second compound 0.316 µM, first compound 0.00316 µM): 107%; viability, T/C (second compound 0.316 µM, first compound 0.01 µM): 103%; viability, T/C (second compound 1 µM, first compound 0.000316 µM): 102%; viability, T/C (second compound 1 µM, first compound 0.001 µM): 101%; viability, T/C (second compound 1 µM, first compound 0.00316 µM): 106%; viability, T/C (second compound 1 µM, first compound 0.01 µM): 103%; viability, T/C (second compound 3.16 µM, first compound 0.000316 µM): 96.4%; viability, T/C (second compound 3.16 µM, first compound 0.001 µM): 101%; viability, T/C (second compound 3.16 µM, first compound 0.00316 µM): 93.4%; viability, T/C (second compound 3.16 µM, first compound 0.01 µM): 92.3%; viability, T/C (second compound 10 µM, first compound 0.000316 µM): 90.7%; viability, T/C (second compound 10 µM, first compound 0.001 µM): 89.5%; viability, T/C (second compound 10 µM, first compound 0.00316 µM): 86.4%; viability, T/C (second compound 10 µM, first compound 0.01 µM): 83.6%
2 | COc1cc(C2c3cc4c(cc3C(OC3OC5COC(C)OC5C(O)C3O)C3COC(=O)C23)OCO4)cc(OC)c1O (stereo not given) + Cc1ccccc1N=Nc1ccc(NC(=O)c2ccnn2C)c(C)c1 | 937 | 873 | 1060 | 885 | 723 | 110 | 110 | 110 | 105 | 107 | 107 | 103 | 82.9 | 96.8 | 91.7 | 85.2 | 46.2 | 24.2 | 9.45 | 86.2 | viability, T/C [16]: 41.6%; viability, T/C [17]: 27.5%; viability, T/C [18]: 10.3%; viability, T/C [19]: 81.4%; viability, T/C [20]: 50.4%; viability, T/C [21]: 26.8%; viability, T/C [22]: 10.3%; viability, T/C [23]: 78%; viability, T/C [24]: 46.4%; viability, T/C [25]: 21.1%; viability, T/C [26]: 7.16%; viability, T/C [27]: 68.4%; viability, T/C [28]: 42.6%; viability, T/C [29]: 19.4%; viability, T/C [30]: 7%
3 | Nc1ccn(C2OC(CO)C(O)C2(F)F)c(=O)n1 (stereo not given) + Cc1ccccc1N=Nc1ccc(NC(=O)c2ccnn2C)c(C)c1 | < 31.6 | < 31.6 | < 31.6 | < 31.6 | < 31.6 | 8.08 | 6.67 | 7.8 | 6.77 | 6.79 | 6.35 | 7.91 | 5.76 | 9.54 | 8.5 | 7.73 | 5.06 | 7.17 | 6.66 | 5.95 | viability, T/C [16]: 8.69%; viability, T/C [17]: 7.54%; viability, T/C [18]: 7.11%; viability, T/C [19]: 7.35%; viability, T/C [20]: 5.82%; viability, T/C [21]: 7.07%; viability, T/C [22]: 6.7%; viability, T/C [23]: 6.46%; viability, T/C [24]: 4.78%; viability, T/C [25]: 6.9%; viability, T/C [26]: 7.29%; viability, T/C [27]: 7.09%; viability, T/C [28]: 6.47%; viability, T/C [29]: 5.53%; viability, T/C [30]: 6.11%
